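96-well plates; 48 h exposure; 5 concentrations. Endpoints by linear interpolation between flanking doses. Not reached: highest tested concentration assigned. GI50 = concentration required for 50% inhibition of growth.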 The source made the active and inactive calls. No stated cut-off is given here; in the data, active = GI50 up to about 1.1 µM and inactive = higher.
How the values were obtained:
Experiment in all cases: DTP human tumour cell line panel, 48 h
[1] = system: CCRF-CEM
[2] = system: HCC 2998
[3] = system: HL-60
[4] = system: HOP-62
[5] = system: K562
[6] = system: KM12
[7] = system: MOLT-4
[8] = system: Malme-3M
[9] = system: NCI-H226
[10] = system: NCI-H23
[11] = system: OVCAR-8
[12] = system: RPMI-8226
[13] = system: SF-268
[14] = system: SF-539
[15] = system: SR
[16] = system: TK-10
[17] = system: UACC-62
[18] = system: DU-145
[19] = system: MDA-MB-435

Row | Compound | GI50 [1] | GI50 [2] | GI50 [3] | GI50 [4] | GI50 [5] | GI50 [6] | GI50 [7] | GI50 [8] | GI50 [9] | GI50 [10] | GI50 [11] | GI50 [12] | GI50 [13] | GI50 [14] | GI50 [15] | GI50 [16] | GI50 [17] | GI50 [18] | GI50 [19]
1 | O=C(Nc1ccc(Sc2ccc(/N=N/c3c(O)c(S(=O)(=O)O)cc4cc(S(=O)(=O)O)ccc34)cc2)cc1)c1ccc(/N=N/c2c(O)ccc3c(S(=O)(=O)O)cc(S(=O)(=O)O)cc23)cc1 | 24.7 µM (inactive) | > 100 µM (inactive) | 10.3 µM (inactive) | 87.3 µM (inactive) | 10.1 µM (inactive) | 39.9 µM (inactive) | 12.8 µM (inactive) | 24.9 µM (inactive) | > 100 µM (inactive) | 19 µM (inactive) | 20.8 µM (inactive) | 10.4 µM (inactive) | 41 µM (inactive) | 46.9 µM (inactive) | 21.6 µM (inactive) | 60.8 µM (inactive) | 16.9 µM (inactive) |  | 
2 | CC(=O)O[C@H]1CC[C@@]2(C)C(=CC[C@@H]3[C@@H]2CC[C@]2(C)NC(=O)/C(=C\c4ccccc4)C[C@@H]32)C1 | 16.5 µM (inactive) | 21.3 µM (inactive) |  | 13.2 µM (inactive) | > 100 µM (inactive) | 18.1 µM (inactive) | > 100 µM (inactive) | 18 µM (inactive) | 18.3 µM (inactive) | 15.9 µM (inactive) | 20.5 µM (inactive) | 12.3 µM (inactive) | 19.6 µM (inactive) | 16.1 µM (inactive) | 55 µM (inactive) | 29.9 µM (inactive) | 14 µM (inactive) | 15.9 µM (inactive) | 14.8 µM (inactive)
3 | CCOC(=O)C1Cc2ccc3c4c(ccc(c24)C1)CC(C(=O)OCC)C3 | > 100 µM (inactive) | > 100 µM (inactive) | > 100 µM (inactive) | > 100 µM (inactive) | > 100 µM (inactive) | > 100 µM (inactive) | > 100 µM (inactive) | > 100 µM (inactive) | > 100 µM (inactive) | > 100 µM (inactive) | > 100 µM (inactive) | > 100 µM (inactive) | > 100 µM (inactive) | > 100 µM (inactive) | > 100 µM (inactive) | > 100 µM (inactive) | > 100 µM (inactive) |  | 
4 | COc1ccc2c(=O)c([Se]c3coc4cc(OC)ccc4c3=O)coc2c1 | 46.7 µM (inactive) | > 100 µM (inactive) | 40.4 µM (inactive) | > 100 µM (inactive) | > 100 µM (inactive) | 41.1 µM (inactive) | 51.8 µM (inactive) | 34.3 µM (inactive) | 52 µM (inactive) | 34.9 µM (inactive) | 41.7 µM (inactive) | > 100 µM (inactive) | > 100 µM (inactive) | 69 µM (inactive) | 44.1 µM (inactive) | > 100 µM (inactive) | > 100 µM (inactive) |  | 
5 | Cc1cc2occ(C)c(=O)c2c2c1OC(C)(C)S2 | 51.1 µM (inactive) | > 100 µM (inactive) | 38.1 µM (inactive) | > 100 µM (inactive) | 51.9 µM (inactive) | > 100 µM (inactive) | 37.3 µM (inactive) | > 100 µM (inactive) | > 100 µM (inactive) | > 100 µM (inactive) | > 100 µM (inactive) | 82.4 µM (inactive) | > 100 µM (inactive) | > 100 µM (inactive) | 65.9 µM (inactive) | > 100 µM (inactive) | > 100 µM (inactive) |  | 
6 | Nc1ncnc2c1nnn2C1CCC(CP(=O)(O)O)C1 (stereo not given) | > 100 µM (inactive) | > 100 µM (inactive) | > 100 µM (inactive) | > 100 µM (inactive) | > 100 µM (inactive) | > 100 µM (inactive) | > 100 µM (inactive) | > 100 µM (inactive) | > 100 µM (inactive) | > 100 µM (inactive) | > 100 µM (inactive) | > 100 µM (inactive) | > 100 µM (inactive) | > 100 µM (inactive) | > 100 µM (inactive) | > 100 µM (inactive) | > 100 µM (inactive) | > 100 µM (inactive) | > 100 µM (inactive)
7 | Nc1nc2ccc(OCC(O)CN3CCCCC3)cc2[n+]([O-])n1 (stereo not given) | > 100 µM (inactive) | > 100 µM (inactive) | > 100 µM (inactive) |  | > 100 µM (inactive) | > 100 µM (inactive) | > 100 µM (inactive) | > 100 µM (inactive) | > 100 µM (inactive) | > 100 µM (inactive) | > 100 µM (inactive) | > 100 µM (inactive) |  | > 100 µM (inactive) | > 100 µM (inactive) | > 100 µM (inactive) |  | > 100 µM (inactive) | > 100 µM (inactive)
8 | COc1cc2c(c(OC)c1OC)-c1ccc(SC)c(=O)cc1[C@@H](NCc1cccc(C#N)c1)CC2 | 0.0229 µM (active) | 0.0198 µM (active) | 0.0419 µM (active) | 0.0334 µM (active) | 0.0361 µM (active) | 0.00528 µM (active) | 0.0328 µM (active) | 0.0232 µM (active) | 0.0226 µM (active) | 0.0179 µM (active) | 0.0222 µM (active) | 0.0345 µM (active) | 0.0164 µM (active) | 0.014 µM (active) | 0.00414 µM (active) | 0.0841 µM (active) | 0.00668 µM (active) |  | 
9 | Nc1ccc(S(=O)(=O)Nc2nnc(S(N)(=O)=O)s2)cc1 |  | > 100 µM (inactive) | > 100 µM (inactive) |  |  | > 100 µM (inactive) | > 100 µM (inactive) | > 100 µM (inactive) | 45.4 µM (inactive) | > 100 µM (inactive) |  | > 100 µM (inactive) | > 100 µM (inactive) | > 100 µM (inactive) | > 100 µM (inactive) | > 100 µM (inactive) | > 100 µM (inactive) | > 100 µM (inactive) | > 100 µM (inactive)
10 | CCOC(=O)CC(NC(=O)c1nc[nH]c1[N+](=O)[O-])C(=O)OCC (stereo not given) | 37.4 µM (inactive) | 30.5 µM (inactive) | > 10 µM (inactive) | 46.7 µM (inactive) | 38.2 µM (inactive) | 65.8 µM (inactive) | 43.1 µM (inactive) | > 100 µM (inactive) | 23 µM (inactive) | 22.6 µM (inactive) | 32.1 µM (inactive) | 29.2 µM (inactive) | 40.6 µM (inactive) | 59.6 µM (inactive) | 44.3 µM (inactive) | 24 µM (inactive) | 66.1 µM (inactive) |  | 
11 | Cc1cccc2c1Oc1cc(Cl)ccc1C2NC(=O)CCN1CCCCC1 (stereo not given) | 16 µM (inactive) | 15 µM (inactive) | 15.7 µM (inactive) | 14.3 µM (inactive) | 15.1 µM (inactive) | 16.3 µM (inactive) | 16.1 µM (inactive) |  |  | 19.1 µM (inactive) | 16.3 µM (inactive) | 25 µM (inactive) | 26.2 µM (inactive) | 16.7 µM (inactive) | 16.2 µM (inactive) | 15.8 µM (inactive) | 14.7 µM (inactive) | > 10 µM (inactive) | 16 µM (inactive)
12 | CC1=C(SC#N)S(=O)(=O)N(c2ccccc2)C(C)=C1SC#N | 17.5 µM (inactive) | > 100 µM (inactive) | 29 µM (inactive) | > 10 µM (inactive) | 21 µM (inactive) | 60.4 µM (inactive) | 20 µM (inactive) | > 100 µM (inactive) | 36.2 µM (inactive) | 48.2 µM (inactive) | 15.1 µM (inactive) | 28.5 µM (inactive) | 69.2 µM (inactive) | 43.3 µM (inactive) | 24.4 µM (inactive) | > 100 µM (inactive) | 30.1 µM (inactive) |  | 
13 | CCOP(=O)(OCC)/C(=C\N1C(=O)CC(=O)NC1=S)C(=O)OC |  | > 100 µM (inactive) | > 100 µM (inactive) | > 100 µM (inactive) |  | > 100 µM (inactive) | > 100 µM (inactive) |  | > 100 µM (inactive) | > 100 µM (inactive) | > 100 µM (inactive) |  | > 100 µM (inactive) | > 100 µM (inactive) |  | > 100 µM (inactive) | > 100 µM (inactive) | > 100 µM (inactive) | > 100 µM (inactive)
14 | O=C1CCC2(O)c3ccccc3C2Cc2ccccc21 (stereo not given) | > 100 µM (inactive) | > 100 µM (inactive) | > 100 µM (inactive) | > 100 µM (inactive) | > 100 µM (inactive) | > 100 µM (inactive) | > 100 µM (inactive) | > 100 µM (inactive) | > 100 µM (inactive) | > 100 µM (inactive) | > 100 µM (inactive) | > 100 µM (inactive) | > 100 µM (inactive) | > 100 µM (inactive) | > 100 µM (inactive) | > 100 µM (inactive) | > 100 µM (inactive) |  | 
15 | N/N=C(/C(=O)Nc1cccc(Cl)c1)C(C(=O)c1ccc(O)cc1O)C1OC(=O)c2ccccc21 (stereo not given) | 35.1 µM (inactive) | > 100 µM (inactive) | > 100 µM (inactive) | > 100 µM (inactive) | > 100 µM (inactive) | > 100 µM (inactive) | 31.8 µM (inactive) | > 100 µM (inactive) | 95.1 µM (inactive) | 65.5 µM (inactive) | > 100 µM (inactive) | 90.6 µM (inactive) | 51.4 µM (inactive) | > 100 µM (inactive) | 40.4 µM (inactive) | > 100 µM (inactive) | 52.8 µM (inactive) |  | 
16 | CSc1nncc(-c2cc3c(c(SC)n2)CCC3)n1 | > 100 µM (inactive) |  | > 100 µM (inactive) | > 100 µM (inactive) |  | > 100 µM (inactive) |  |  | > 100 µM (inactive) | > 100 µM (inactive) | 24.4 µM (inactive) | > 100 µM (inactive) | 76 µM (inactive) |  |  | > 100 µM (inactive) | > 100 µM (inactive) | > 100 µM (inactive) | > 100 µM (inactive)

Reference: ChEMBL document CHEMBL1201862, “PubChem BioAssay data set” (2004)
